From patent publication US20250163104A1, “MACROCYCLIC IMMUNOMODULATORS” (priority 2021, published 2025)
*1 amine or outer side, *2 acyl side, *3 side chain or, on linkers, in order; H or OH if unused. Where a SMILES comes first, the peptide text is derived from it. Bridges are numbered along the chain shown (N, C = ends). [ ]: non-standard residue; d: D form. The star is where a group is joined. ξ: configuration not given here. Phe(4-CONH2) = NC(=O)c1ccc(C[C@H](N)C(=O)O)cc1; Phe(4-COOH) = N[C@@H](Cc1ccc(C(=O)O)cc1)C(=O)O; X5 = O=C([C@H](Cc1ccc2ncccc2c1)N[*:1])[*:2]; Bip = N[C@@H](Cc1ccc(-c2ccccc2)cc1)C(=O)O; Phe(3-Me) = Cc1cccc(C[C@H](N)C(=O)O)c1; Dap(N3) = [N-]=[N+]=NC[C@H](N)C(=O)O; Ethylenediamine = C(CN[*:2])N[*:1]; Val(3-OH) = CC(C)(O)[C@H](N)C(=O)O; 4Pal = N[C@@H](Cc1ccncc1)C(=O)O; 2Thi = N[C@@H](Cc1cccs1)C(=O)O; Cha = N[C@@H](CC1CCCCC1)C(=O)O; Cit = NC(=O)NCCC[C@H](N)C(=O)O; Thr(3ξ) = CC(O)[C@H](N)C(=O)O; hSer = N[C@@H](CCO)C(=O)O; Carboxymethyl = O=C(O)C*; Orn = NCCC[C@H](N)C(=O)O; Pra = C#CC[C@H](N)C(=O)O; Dab = NCC[C@H](N)C(=O)O; Nva = CCC[C@H](N)C(=O)O; Dap = NC[C@H](N)C(=O)O; NHCH2CH2OMe = COCCN*

Target: T1, human PD-1 / PD-L1-Ig binding on Jurkat cell line over-expressing human PD-1 (Jurkat-PD-1) (Homo sapiens, UniProt Q15116)
T1 construct: expressed in transfected cells; host or cells: Jurkat
Experiment: Jurkat-PD-1 Cell Binding High-Content Screening Assay (CBA)
Assay type: cell-based
Conditions: Jurkat-PD-1 cells, PE-labeled PD-L1-Ig 20 nM final; read-out: Jurkat HPD1_PDL1 IC50
Outline: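 PE-PD-L1-Ig 20 nM final; cells in DMEM/10% FCS; cpd pre-incubation 2 h, 37° C; ligand 1 h; PFA fix + Hoechst 33342; high-content imaging read-out.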

T1 sequence (Q15116 25-288): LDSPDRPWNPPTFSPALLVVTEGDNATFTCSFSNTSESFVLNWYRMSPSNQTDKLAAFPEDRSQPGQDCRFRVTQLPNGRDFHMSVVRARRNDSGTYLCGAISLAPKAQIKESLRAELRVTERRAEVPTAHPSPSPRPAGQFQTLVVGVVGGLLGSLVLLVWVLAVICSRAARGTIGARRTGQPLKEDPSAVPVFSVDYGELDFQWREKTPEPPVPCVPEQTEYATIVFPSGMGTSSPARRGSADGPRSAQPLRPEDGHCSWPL

Compound	IC50
Cc1cccc(C[C@@H]2NC(=O)[C@H](CC(=O)O)NC(=O)[C@H](Cc3ccncc3)NC(=O)[C@H](Cc3ccc(OCC(=O)O)cc3)NC(=O)CSC[C@@H](C(=O)N[C@@H](C)C(N)=O)NC(=O)[C@H]([C@@H](C)O)NC(=O)[C@H](C(C)C)NC(=O)[C@H](CC3CCCCC3)NC(=O)[C@H](CCN)NC(=O)[C@@H](CC(C)C)NC(=O)[C@H](CCCN)NC(=O)[C@H](C(C)C)NC(=O)[C@H](Cc3ccc(-c4ccccc4)cc3)NC(=O)[C@H](C(C)C)NC2=O)c1 [Compound 1329] ({CH2CO}-Y(Carboxymethyl)[4Pal]D[Phe(3-Me)]V[Bip]V[Orn][dL][Dab][Cha]VTCA-NH2; thioether N-14)	6.8 nM
CCC[C@@H]1NC(=O)CSC[C@@H](C(=O)N[C@@H](CCN)C(=O)NCCOC)NC(=O)[C@H](CO)NC(=O)[C@H](C(C)(C)O)NC(=O)[C@H](CC2CCCCC2)NC(=O)[C@H](CCN)NC(=O)[C@@H](CC(C)C)NC(=O)[C@H](CCCN)NC(=O)[C@H](Cc2ccc(OCC(=O)O)cc2)NC(=O)[C@H](Cc2ccc(-c3ccccc3)cc2)NC(=O)[C@H](Cc2ccc(OCC(=O)O)cc2)NC(=O)[C@H](Cc2cccc(C)c2)NC(=O)[C@H](CC(=O)O)NC(=O)[C@H](Cc2ccc(OCC(=O)O)cc2)NC1=O [Compound 2074] ({CH2CO}-[Nva]Y(Carboxymethyl)D[Phe(3-Me)]Y(Carboxymethyl)[Bip]Y(Carboxymethyl)[Orn][dL][Dab][Cha][Val(3-OH)]SC[Dab]-NHCH2CH2OMe; thioether N-14)	4.4 nM
CC(C)C[C@@H]1NC(=O)[C@H](CCN)NC(=O)[C@@H](CC(C)C)NC(=O)[C@H](CCCCN)NC(=O)[C@H](CCCNC(N)=O)NC(=O)[C@H](Cc2ccc(-c3ccccc3)cc2)NC(=O)[C@H](C(C)C)NC(=O)[C@H](Cc2c[nH]c3ccccc23)NC(=O)[C@H](CC(=O)O)NC(=O)[C@H](Cc2ccc(O)cc2)NC(=O)[C@H](CC(N)=O)NC(=O)CSC[C@@H](C(=O)NCC(N)=O)NC(=O)[C@H]([C@@H](C)O)NC(=O)[C@H](C(C)C)NC1=O [Compound 1116] ({CH2CO}-NYDWV[Bip][Cit]K[dL][Dab]LVTCG-NH2; thioether N-14)	38.5 nM
C#CC[C@H](NC(=O)[C@@H]1CSCC(=O)N[C@@H](CN)C(=O)N[C@@H](CN=[N+]=[N-])C(=O)N[C@@H](CC(=O)O)C(=O)N[C@@H](Cc2c[nH]c3ccccc23)C(=O)N[C@@H](C(C)C)C(=O)N[C@@H](Cc2ccc(-c3ccccc3)cc2)C(=O)N[C@@H](CCC(=O)O)C(=O)N[C@@H](CCCN)C(=O)N[C@H](CC(C)C)C(=O)N[C@@H](CCN)C(=O)N[C@@H](CC2CCCCC2)C(=O)N[C@@H](C(C)C)C(=O)N[C@@H]([C@@H](C)O)C(=O)N1)C(N)=O [Compound 1539] ({CH2CO}-[Dap][Dap(N3)]DWV[Bip]E[Orn][dL][Dab][Cha]VTC[Pra]-NH2; thioether N-14)	85.7 nM
COCCNC(=O)[C@H](CCN)NC(=O)[C@@H]1CSCC(=O)N[C@@H](CCOC)C(=O)N[C@@H](Cc2ccc(OCC(=O)O)cc2)C(=O)N[C@@H](CC(=O)O)C(=O)N[C@@H](Cc2cccc(C)c2)C(=O)N[C@@H](Cc2ccc(OCC(=O)O)cc2)C(=O)N[C@@H](Cc2ccc(-c3ccccc3)cc2)C(=O)N[C@@H](Cc2ccc(OCC(=O)O)cc2)C(=O)N[C@@H](CCCN)C(=O)N[C@H](CC(C)C)C(=O)N[C@@H](CCN)C(=O)N[C@@H](CC2CCCCC2)C(=O)N[C@@H](C(C)(C)O)C(=O)N[C@@H](CO)C(=O)N1 [Compound 2075] ({CH2CO}-[hSer](Me)Y(Carboxymethyl)D[Phe(3-Me)]Y(Carboxymethyl)[Bip]Y(Carboxymethyl)[Orn][dL][Dab][Cha][Val(3-OH)]SC[Dab]-NHCH2CH2OMe; thioether N-14)	4.1 nM
Cc1cccc(C[C@@H]2NC(=O)[C@H](CC(=O)O)NC(=O)[C@H](Cc3ccc(OCC(=O)O)cc3)NC(=O)[C@H](CCCNC(=N)N)NC(=O)CSC[C@@H](C(N)=O)NC(=O)[C@H]([C@@H](C)O)NC(=O)[C@H](C(C)C)NC(=O)[C@H](CC3CCCCC3)NC(=O)[C@H](CCN)NC(=O)[C@@H](CC(C)C)NC(=O)[C@H](CCCN)NC(=O)[C@H](CCCN)NC(=O)[C@H](Cc3ccc(-c4ccccc4)cc3)NC(=O)[C@H](Cc3ccc(O)cc3)NC2=O)c1 [Compound 2055] ({CH2CO}-RY(Carboxymethyl)D[Phe(3-Me)]Y[Bip][Orn][Orn][dL][Dab][Cha]VTC-NH2; thioether N-14)	97.3 nM
Cc1cccc(C[C@@H]2NC(=O)[C@H](CC(=O)O)NC(=O)[C@H](Cc3ccc(OCC(=O)O)cc3)NC(=O)[C@H](C(C)O)NC(=O)CSC[C@@H](C(=O)N[C@@H](CN)C(=O)NCCN)NC(=O)[C@H](C(C)O)NC(=O)[C@H](C(C)(C)O)NC(=O)[C@H](CC3CCCCC3)NC(=O)[C@H](CCN)NC(=O)[C@@H](CC(C)C)NC(=O)[C@H](CCCN)NC(=O)[C@H](Cc3ccc(O)cc3)NC(=O)[C@H](Cc3ccc(-c4ccccc4)cc3)NC(=O)[C@H](Cc3ccc(C(N)=O)cc3)NC2=O)c1 (stereo partly drawn) [Compound 2664] ({CH2CO}-[Thr(3ξ)]Y(Carboxymethyl)D[Phe(3-Me)][Phe(4-CONH2)][Bip]Y[Orn][dL][Dab][Cha][Val(3-OH)][Thr(3ξ)]C[Dap]-Ethylenediamine; thioether N-14)	15.2 nM
Cc1cccc(C[C@@H]2NC(=O)[C@H](CC(=O)O)NC(=O)[C@H](Cc3ccc(C(=O)O)cc3)NC(=O)[C@H](Cc3ccncc3)NC(=O)CSC[C@@H](C(N)=O)NC(=O)[C@H]([C@@H](C)O)NC(=O)[C@H](C(C)C)NC(=O)[C@H](CC3CCCCC3)NC(=O)[C@H](CCN)NC(=O)[C@@H](CC(C)C)NC(=O)[C@H](CCCN)NC(=O)[C@H](CCC(=O)O)NC(=O)[C@H](Cc3ccc(-c4ccccc4)cc3)NC(=O)[C@H](C(C)C)NC2=O)c1 [Compound 1552] ({CH2CO}-[4Pal][Phe(4-COOH)]D[Phe(3-Me)]V[Bip]E[Orn][dL][Dab][Cha]VTC-NH2; thioether N-14)	21.8 nM
CC(C)C[C@H]1NC(=O)[C@H](CCCN)NC(=O)[C@H](CCC(=O)O)NC(=O)[C@H](Cc2ccc(-c3ccccc3)cc2)NC(=O)[C@H](C(C)C)NC(=O)[C@H](Cc2c[nH]c3ccccc23)NC(=O)[C@H](CC(=O)O)NC(=O)[C@H](Cc2ccc3ncccc3c2)NC(=O)[C@H](CN)NC(=O)CSC[C@@H](C(=O)N[C@@H](C)C(N)=O)NC(=O)[C@H]([C@@H](C)O)NC(=O)[C@H](C(C)C)NC(=O)[C@H](CC2CCCCC2)NC(=O)[C@H](CCN)NC1=O [Compound 2177] ({CH2CO}-[Dap][X5]DWV[Bip]E[Orn][dL][Dab][Cha]VTCA-NH2; thioether N-14)	128 nM
CC(C)C[C@H]1NC(=O)[C@H](CCCN)NC(=O)[C@H](CCC(=O)O)NC(=O)[C@H](Cc2ccc(-c3ccccc3)cc2)NC(=O)[C@H](C(C)C)NC(=O)[C@H](Cc2cccs2)NC(=O)[C@H](CC(=O)O)NC(=O)[C@H](Cc2ccncc2)NC(=O)[C@H](Cc2ccccc2)NC(=O)CSC[C@@H](C(=O)N[C@@H](C)C(N)=O)NC(=O)[C@H]([C@@H](C)O)NC(=O)[C@H](C(C)C)NC(=O)[C@H](CC2CCCCC2)NC(=O)[C@H](CCN)NC1=O [Compound 2200] ({CH2CO}-F[4Pal]D[2Thi]V[Bip]E[Orn][dL][Dab][Cha]VTCA-NH2; thioether N-14)	10.2 nM
